In patent US7091222B2, “Imidazole derivatives” (Hoffmann-La Roche Inc., priority 2003, dated 2006) one finds Ki data, which are given here for nine compounds.

The target in this assay is T1, human mGlu 5a receptor (Homo sapiens, UniProt P41594).
T1 construct: expressed in transfected cells; host or cells: EBNA cells (transient transfection); membrane homogenates
Briefly: [3H]MPEP competition binding on membranes of EBNA cells transfected with human mGlu 5a receptor. Particulars: competition with [3H]MPEP (2 nM), 1 h at 4° C., membranes of transiently transfected EBNA cells; Ki=IC50/[1+L/Kd]. The procedure:
For binding experiments, cDNA encoding human mGlu 5a receptor was transiently transfected into EBNA cells using a procedure described by Schlaeger and Christensen [Cytotechnology 15:1–13 (1998)]. Cell membrane homogenates were stored at −80° C. until the day of assay where upon they were thawed and resuspended and polytronised in 15 mM Tris-HCl, 120 mM NaCl, 100 mM KCl, 25 mM CaCl2, 25 mM MgCl2 binding buffer at pH 7.4 to a final assay concentration of 20 μg protein/well.
Saturation isotherms were determined by addition of twelve [^3H]MPEP concentrations (0.04–100 nM) to these membranes (in a total volume of 200 μl) for 1 h at 4° C. Competition experiments were performed with a fixed concentration of [^3H]MPEP (2 nM) and IC50 values of test compounds evaluated using 11 concentrations (0.3–10,000 nM). Incubations were performed for 1 h at 4° C.
At the end of the incubation, membranes were filtered onto unifilter (96-well white microplate with bonded GF/C filter preincubated 1 h in 0.1% PEI in wash buffer, Packard BioScience, Meriden, Conn.) with a Filtermate 96 harvester (Packard BioScience) and washed 3 times with cold 50 mM Tris-HCl, pH 7.4 buffer. Nonspecific binding was measured in the presence of 10 μM MPEP. The radioactivity on the filter was counted (3 min) on a Packard Top-count microplate scintillation counter with quenching correction after addition of 45 μl of microscint 40 (Canberra Packard S. A., Zürich, Switzerland) and shaking for 20 min.
The inhibition (antagonists) curves were fitted with a four parameter logistic equation giving IC50, and Hill coefficient using an iterative non linear curve fitting software (Xcel fit).
For binding experiments the Ki values of the compounds tested are given. the Ki value is defined by the following formula: Ki=IC50/[1+L /Kd] in which the IC50 values are those concentrations of the compounds tested which cause 50% inhibition of the competing radioligand ([^3H]MPEP). L is the concentraion of radioligand used in the binding experiment and the Kd value of the radioligand is empirically determined for each batch of membranes prepared.

T1 sequence (P41594 21-1180 isoform P41594-2 limits assumed): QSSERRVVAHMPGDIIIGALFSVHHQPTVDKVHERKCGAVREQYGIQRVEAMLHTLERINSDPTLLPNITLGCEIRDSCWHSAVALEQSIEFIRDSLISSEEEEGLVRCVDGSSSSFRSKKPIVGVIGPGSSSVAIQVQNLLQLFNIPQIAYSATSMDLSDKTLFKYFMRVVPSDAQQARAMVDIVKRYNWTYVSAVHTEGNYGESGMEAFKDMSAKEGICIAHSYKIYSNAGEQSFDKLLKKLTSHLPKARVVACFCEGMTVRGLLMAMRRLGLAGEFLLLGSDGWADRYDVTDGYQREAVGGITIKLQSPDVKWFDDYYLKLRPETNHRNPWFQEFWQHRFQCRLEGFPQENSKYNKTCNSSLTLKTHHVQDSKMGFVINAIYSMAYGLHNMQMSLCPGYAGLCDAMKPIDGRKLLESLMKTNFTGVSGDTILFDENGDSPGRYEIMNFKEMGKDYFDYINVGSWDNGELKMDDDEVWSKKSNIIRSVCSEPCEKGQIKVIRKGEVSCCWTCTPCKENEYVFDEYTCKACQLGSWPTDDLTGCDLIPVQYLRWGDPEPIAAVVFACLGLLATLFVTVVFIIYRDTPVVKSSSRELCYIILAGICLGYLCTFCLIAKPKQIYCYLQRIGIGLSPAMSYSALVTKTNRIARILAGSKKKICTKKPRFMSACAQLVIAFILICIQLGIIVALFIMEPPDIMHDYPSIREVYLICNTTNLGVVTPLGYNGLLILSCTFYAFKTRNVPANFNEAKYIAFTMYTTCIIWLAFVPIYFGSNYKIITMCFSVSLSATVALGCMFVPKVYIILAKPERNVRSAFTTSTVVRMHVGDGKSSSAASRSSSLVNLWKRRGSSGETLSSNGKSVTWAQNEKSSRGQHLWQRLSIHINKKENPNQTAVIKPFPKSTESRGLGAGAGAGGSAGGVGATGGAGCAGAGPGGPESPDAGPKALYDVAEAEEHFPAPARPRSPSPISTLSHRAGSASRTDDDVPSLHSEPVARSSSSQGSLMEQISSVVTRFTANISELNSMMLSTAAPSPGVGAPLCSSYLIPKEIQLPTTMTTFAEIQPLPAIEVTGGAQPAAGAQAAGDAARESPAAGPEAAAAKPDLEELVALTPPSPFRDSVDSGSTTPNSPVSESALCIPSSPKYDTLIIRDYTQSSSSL

As for `Cc1cc(C#Cc2cn(C(C)C)c(C)n2)ccn1` [Example 2, 4-(1-Isopropyl-2-methyl-1H-imidazol-4-ylethynyl)-2-methyl-pyridine], the Ki is 68 nM.

Consider `Cc1cc(C#Cc2cn(CC3CC3)c(C)n2)ccn1` [Example 4, 4-(1-Cyclopropylmethyl-2-methyl-1H-imidazol-4-ylethynyl)-2-methyl-pyridine], for which the Ki was found to be 38 nM.

Consider `Cc1cc(C#Cc2cn(CC#N)c(C)n2)ccn1` [Example 6, [2-Methyl-4-(2-methyl-pyridin-4-ylethynyl)-imidazol-1-yl]-acetonitrile], for which the Ki came to 33 nM.

As for `COCCn1cc(C#Cc2ccnc(C)c2)nc1C` [Example 7, 4-[1-(2-Methoxy-ethyl)-2-methyl-1H-imidazol-4-ylethynyl]-2-methyl-pyridine], the Ki was determined as 122 nM.

In the case of `Cc1nc(C#Cc2ccnc(Cl)c2)cn1CC(C)C` [Example 8, 2-Chloro-4-(1-isobutyl-2-methyl-1H-imidazol-4-ylethynyl)-pyridine], the Ki is 191 nM.

As for `Cc1nc(C#Cc2ccnc(Cl)c2)cn1C` [Example 12, 2-Chloro-4-(1,2-dimethyl-1H-imidazol-4-ylethynyl)-pyridine], the Ki was found to be 49 nM.

Consider `Cc1cc(C#Cc2cn(C)c(C3CC3)n2)ccn1` [Example 13, 4-(2-Cyclopropyl-1-methyl-1H-imidazol-4-ylethynyl)-2-methyl-pyridine], for which the Ki came to 28 nM.

With `Cc1cc(C#Cc2cn(CC(F)(F)F)c(C)n2)ccn1` [Example 21, 2-Methyl-4-[2-methyl-1-(2,2,2-trifluoro-ethyl)-1H-imidazol-4-ylethynyl]-pyridine], the Ki was 54 nM.

Regarding `Cc1nc(C#Cc2ccnc(Cl)c2)cn1CC(F)(F)F` [Example 22, 2-Chloro-4-[2-methyl-1-(2,2,2-trifluoro-ethyl)-1H-imidazol-4-ylethynyl]-pyridine], the Ki stood at 95 nM.
